The source of these data is patent US20240059644A1, “COMPOUND, COMPOSITION, BIOTISSUE EMBRITTLEMENT AGENT, BIOTISSUE SURFACE DETACHMENT METHOD, AND BIOTISSUE DETACHMENT KIT” (SANYO CHEMICAL INDUSTRIES, LTD., priority 2020, published 2024).

One data set deals with beagle dogs. The note with it: Ca-EDTA compared with Ca-DTPA; cited from earlier work.
For data set [1], the system named is large intestine tissue pieces (crypts). Kind of data set: Evaluation 1 of in vitro crypt isolation effect. The note with it: 37° C. 30 minutes. It is filed as cell-based, mice (C57B6/j). The procedure: Eight-week-old male mice (C57B6/j, CLEA Japan, Inc.) were sacrificed by cervical dislocation and the whole large intestine was removed. […] The intestinal tract was longitudinally opened and 5-mm-long tissue pieces were obtained. The tissue pieces were placed in 1.5-mL microtubes each containing 1 mL of Hank's balanced salt solution. The tissue pieces were washed by stirring for 10 minutes with a microtube mixer (MT-400 available from TOMY SEIKO CO., LTD.). After washing, the tissue pieces were transferred to other 1.5-mL microtubes each containing 1 mL of Hank's balanced salt solution, and washed in the same manner.
The tissue pieces were transferred to 1.5-mL microtubes containing the compositions (C-1) to (C-6) and the comparative compositions (C′-1) to (C′-7) each in an amount of 1 mL and were allowed to stand at 37° C. for 30 minutes.
After 30 minutes, the tissue pieces were transferred to other 1.5-mL microtubes each containing 1 mL of Hank's balanced salt solution and stirred for five minutes with a microtube mixer. Thereby, the crypts were isolated. […] Thereby, the tissue was fixed. A 50-μL portion was sampled therefrom and dropped onto dishes, and the number of crypts contained was counted using an optical microscope. The number of crypts was counted three times for each concentration, and the average was calculated therefrom.
The presence of one or more crypts was considered that a sufficient embrittlement effect was obtained.

The subject of data set [2] is minced distal large intestine tissue (crypts). Kind of data set: Evaluation 2 of in vitro crypt isolation effect. The note with it: 37° C. 30 minutes. It is filed as cell-based, mice (C57B6/j). The procedure:
Thereby, the crypts were isolated. […] Thereby, the tissue was fixed. A 50-μL portion was sampled therefrom and dropped onto dishes, and the number of crypts contained was counted using an optical microscope. The number of crypts was counted three times for each concentration, and the average was calculated therefrom.

The next data set deals with proximal large intestine. Kind of data set: Evaluation 1 of in vivo epithelial detachment effect. Set-up: species or system mice (C57B6/j). Conditions: 8 mL at 50° C. over two minutes, once.

Each structure is given as a SMILES string.

Excerpt for proximal large intestine: A longitudinal 1-cm abdominal midline incision was made, and the proximal large intestine was exposed to the outside of the abdominal cavity. A small incision was made in the proximal large intestine 1 cm anal side from the cecum, and a catheter was inserted toward the anal. […] A small incision was made 1 cm anal side from the catheter insertion site, and another catheter was inserted toward the oral side. These two catheters allowed perfusion of the 1-cm-long intestinal tract. The catheters were each fixed with a thread from the outside of the intestinal tract, together with the vasculature, to cut off the blood flow in the 1-cm-long intestinal tract sandwiched between the two catheters.
Immediately after the injection of the biological tissue embrittling agents, 25 mL of Dulbecco's phosphate-buffered saline (without Ca and Mg) was continuously injected three times each over 45 seconds, whereby the crypts were detached. Then, 20 mL of Dulbecco's Modified Eagle's Medium, high glucose, (Sigma-Aldrich Cat #D5796) was injected to antagonize the biological tissue embrittling agents. […] The large intestine was longitudinally cut and flat opened, and was imaged with a fluorescent stereo microscope (Leica M165 FC) and an all-in-one fluorescence microscope (KEYENCE BZ-X800). The images were analyzed with ImageJ and the detached area was measured. […]

Consider `O=C([O-])CN(CCN(CC(=O)[O-])CC(=O)[O-])CCN(CC(=O)[O-])CC(=O)[O-].[Ca+2].[Na+].[Na+].[Na+]` [Ca-DTPA], for which the “safety of intravenous administration for one month” value in the data set on beagle dogs is reported as “no significant difference in safety”.

For the molecule `O=C([O-])CN(CCN(CC(=O)O)CC(=O)O)CC(=O)[O-].[Na+].[Na+]` [(Z′-1), disodium ethylenediaminetetraacetate], the Number of crypts turned out to be 48.67 in data set [1] (2 mM, compositions (C-1), (C′-2)); 156.33 in data set [1] (8 mM, compositions (C-2), (C′-3)); 140 in data set [1] (16 mM, compositions (C-3), (C′-4)); 129.33 in data set [1] (32 mM, compositions (C-4), (C′-5)); 115.33 in data set [1] (64 mM, compositions (C-5), (C′-6)); 95.67 in data set [1] (128 mM, compositions (C-6), (C′-7)). Further, the Number of crypts in data set [2] (3 mM, compositions (C-7) to (C-10), (C′-8)) stood at 108.89; in data set [2] (10 mM, compositions (C-11) to (C-14), (C′-9)), 169.56. The “Evaluation 1 of epithelial detachment effect Detached area” value in the data set with proximal large intestine (230 mM, agents (M-1), (M′-2)) turned out to be 30.2 mm^2; in the data set with proximal large intestine (500 mM, agent (M′-3)), 66.0 mm^2.

Take `O=C(O)CN(CCN(CC(=O)O)CC(=O)O)CC(=O)O.[Ca]` [Ca-EDTA]: the “safety of intravenous administration for one month” value in the data set on beagle dogs is recorded as “no significant difference in safety”.
